We go through two compounds from patent US20240292837A1, “CHROMONE DERIVATIVES AS ATTRACTANTS AND REPELLENTS OF BLOOD-SUCKING, BITING INVERTEBRATES” (CENTRE NATIONAL DE LA RECHERCHE SCIENTIFIQUE, priority 2021, published 2024).

Assay [1] has as its system Aedes albopictus. In words: Evaluation of the repellent and/or attractant effect in a tunnel olfactometer. The following applies: for Control (±SD), mean number of mosquitoes in the control zone / Treated (±SD), mean number of mosquitoes in the treated zone / Treated/Product (±SD), mean number of mosquitoes in the treated zone: 15 females. In kind it is in vivo. From the text:
The tunnel olfactometer is a 1 m long glass parallelepiped with a 5×5 cm side. The tube is equipped with 3 openings: two on each side, one for feeding in the paper impregnated with the product to be tested, and the other for the paper containing a control. The opening in the middle is for feeding in mosquitoes. Both ends of the tube are closed by covers.
The olfactometer is divided into three compartments or zones: • a neutral zone in the middle; • a test or treated area which is on the side of depositing the product; and • a control area which is located on the side of depositing the control.
For each test, 15 Aedes albopictus females (aged 5 to 12 days) are fed into the neutral zone of the tunnel olfactometer. Mosquitoes are kept for 10 minutes for a time of adaptation. Papers impregnated and dried with a solution of product in ethanol and pure ethanol as a reference are fed in, then the barriers are opened to allow mosquitoes to circulate freely inside the tube. Three test repetitions were carried out for each product. A repetition lasts 20 minutes and the results observed were recorded every 5 minutes.
The values measured are the activity index and the repulsion index. The activity index (Al) describes the percentage of mosquitoes in the control zone (T) and in the treated zone (P) with respect to the total number of mosquitoes tested. Said value should be greater than 30% for the test to be considered significant.
The repulsion index (RI) represents the percentage of the difference in the number of mosquitoes in the control part and in the treated part divided by the sum of the two values. A negative value of the parameter (RI) indicates an attractant activity (kairomone index. KI) of the product tested.
[formula] • Al: Activity index • RI: Repulsion index • T: Number of mosquitoes in the control area • P: Number of mosquitoes in the treated area

Assay [2] relates to Aedes albopictus. Description: Evaluation of the combination 4-hydroxycoumarin / 7-nonyloxychromone (KI vs amount deposited, FIG. 1). In kind it is in vivo. From the text: Said figure represents the IK (in %) as a function of the amount deposited (in mg).
It is possible to combine a chromone compound with other compounds of different structure.

Take `CCCCCCCC(C)Oc1ccc2c(=O)ccoc2c1` (racemic) [7-sec-nonyloxychromone]: in the assay on Aedes albopictus [1] (5 mg deposition, negative = attractant), the “Repulsion index 5 mg deposition” value was −65.8%. Further, in the assay on Aedes albopictus [1] (10 mg deposition, negative = attractant), the “Repulsion index 10 mg deposition” value was −63.7%. The “Repulsion index 30 mg deposition” value in the assay with Aedes albopictus [1] (30 mg deposition, negative = attractant) is −27.1%. In addition, the “AI (%) activity index” value is 91.1% in the assay with Aedes albopictus [1] (dose 0.1 mg/ml); 91.1% with Aedes albopictus [1] (dose 2 mg/ml); 83.9% in the assay on Aedes albopictus [1] (dose 5 mg/ml); 91.7% in the assay on Aedes albopictus [1] (dose 10 mg/ml); 88.3% in the assay on Aedes albopictus [1] (dose 30 mg/ml). Besides, the “Control (±SD), mean number of mosquitoes in the control zone” value in the assay with Aedes albopictus [1] (dose 0.1 mg/ml in treated zone) is 2.5 ± 0.2; in the assay on Aedes albopictus [1] (dose 2 mg/ml in treated zone), 1.4 ± 0.4; in the assay on Aedes albopictus [1] (dose 5 mg/ml in treated zone) it was 2.2 ± 0.3; with Aedes albopictus [1] (dose 10 mg/ml in treated zone) it was 2.5 ± 0.5; with Aedes albopictus [1] (dose 30 mg/ml in treated zone) it was 4.8 ± 0.4. Moreover, the “Treated (±SD), mean number of mosquitoes in the treated zone” value with Aedes albopictus [1] (dose 0.1 mg/ml) is reported as 11.2 ± 0.6; in the assay on Aedes albopictus [1] (dose 2 mg/ml), 12.3 ± 0.0. For the same compound, the “KI (%) kairomone index” value is on record as −63.5% with Aedes albopictus [1] (dose 0.1 mg/ml, negative = attractant); −79.8% in the assay on Aedes albopictus [1] (dose 2 mg/ml, negative = attractant); −65.8% with Aedes albopictus [1] (dose 5 mg/ml, negative = attractant); −63.6% with Aedes albopictus [1] (dose 10 mg/ml, negative = attractant); −27.1% in the assay on Aedes albopictus [1] (dose 30 mg/ml, negative = attractant). Besides, the “Treated/Product (±SD), mean number of mosquitoes in the treated zone” value in the assay with Aedes albopictus [1] (dose 5 mg/ml) came out at 10.4 ± 0.1; in the assay with Aedes albopictus [1] (dose 10 mg/ml), 11.3 ± 0.0; in the assay on Aedes albopictus [1] (dose 30 mg/ml) it was 8.4 ± 0.2. Also, in the assay with Aedes albopictus [1] (dose of 2 mg/ml, given as magnitude), the “maximum value of KI” value is reported as about 80%. Also, the “repellent or attractant effect (in words)” value in the assay with Aedes albopictus [1] (over the doses tested) is reported as “stays attractant”. Moreover, the “attractant activity (KI)” value with Aedes albopictus [1] (up to 10 mg/ml, given as magnitude) is “above 65%”. For the same compound, the “change of attractant effect with dose (in words)” value in the assay with Aedes albopictus [2] (from the 10 mg dose onwards) was “significant decrease”.

In the case of `O=c1cc(O)c2ccccc2o1` [4-hydroxycoumarin], the increase in attraction with Aedes albopictus [2] (higher doses (10 and 30 mg) vs low doses) came out at 10%. The “kairomone index KI” value in the assay with Aedes albopictus [2] (low dose (or quantity)) is about 40%.
